# Laboratory results taken from patent publication US20190119357A1, “MESSENGER RIBONUCLEIC ACIDS FOR THE PRODUCTION OF INTRACELLULAR BINDING POLYPEPTIDES AND METHODS OF USE THEREOF” (ModernaTX, Inc., priority 2015, published 2019).
# Legend:
# MCL1 = MCL1 downregulation by Western blotting in Hep3B cells; assay type: cell-based, human; conditions: 24 hours, sorafenib 10 uM
# Experimental: A first series of experiments was conducted to determine whether specific targeting of MCL1 recapitulates sorafenib synergy with SQT-BH3 in cells in vitro.
# Hep3B SC tumors = test: Combination with sorafenib in SCID mice bearing Hep3B SC tumors; assay type: in vivo; conditions: Sorafenib 10 mg/kg orally daily alone, three weeks, end of study
# Experimental: SCID mice bearing Hep3B SC tumors (tumor size range 140-227 mm^3; average=183 mm^3) were dosed over a three week period with a combination of 0.5% methyl cellulose daily and SQT IV at 1.5 mg/kg alone weekly (Days 1, 8 and 15; Group 1), Sorafenib (in 0.5% methyl cellulose) at 10 mg/kg orally daily alone (Group 2), mmRNA encoding SQT-PUMA-BH3 (comprising a miR122 binding site) weekly at 1.5 mg/kg IV alone (Group 3) or a combination of mmRNA encoding SQT-PUMA-BH3 (with miR122 binding site) at 1.5 mg/kg IV weekly with sorafenib at 10 mg/kg orally daily (Group 4; 10 animals per group).
# systemic TF1a xenografts = test: Systemic TF1a xenografts in SCID mice (AML model); assay type: in vivo; conditions: TF1a-SCID; mRNA LNPs 3 mg/kg one time per week, cytarabine 2 mg/kg three times per week, IV, four weeks
# Experimental: LNPs comprising the cationic lipid MC3 were tested using the optimal percentage of PEG-lipid and optimal PEG length (1.5% DSPE, C18, as described in Example 8), for in vivo targeted delivery of SQT-PUMA-BH3 in two different in vivo models of acute myeloid leukemia (AML). One model used systemic TF1a xenografts in SCID mice. The other model used systemic HEL xenografts in SCID mice. Each of these models uses a human erythroleukemia cell line. The HEL erythroleukia cell line is described in, for example, Martin, P. and Papayannopoulou, T. (1982) Science 216:1233-1235. The TF1 erythroleukmia cell line (from which TF1a is derived) is described in, for example, Kitamura, T. et al. (1989) J. Cell. Physiol. 140:323-334. Unless otherwise noted, mRNAs were fully modified with N1-methlypseudouridine to avoid stimulating an innate immune response to said mRNAs when administered in vivo.
# In a first set of experiments, TF1a cells stably expressing luciferase (TF1α-luc cells) were implanted systemically in SCID mice. Tumor growth was measured by whole body bioluminescent imaging (BLI) in anaesthetized animals following SC injection of 150 mg/kg D-Luciferin, in an imaging chamber (Spectrum CT). Animals showing an increasing tumor burden at day 12 post-cell implantation were recruited for treatment. […]
Compound,MCL1 level (Western blotting) (MCL1),tumor growth inhibition (TGI) (Hep3B SC tumors) [%],systemic tumor growth (BLI) (systemic TF1a xenografts)
"CNC(=O)c1cc(Oc2ccc(NC(=O)Nc3ccc(Cl)c(C(F)(F)F)c3)cc2)ccn1 [sorafenib, reference compound]",downregulates MCL1,38,
"Nc1ccn([C@@H]2O[C@H](CO)[C@@H](O)[C@@H]2O)c(=O)n1 [cytarabine, reference compound]",,,did inhibit systemic tumor growth
